From patent US20160138077A1, “MONITORING AND ASSESSING DEACETYLASE ENZYME ACTIVITY” (THE GENERAL HOSPITAL CORPORATION, priority 2013, published 2016)

Key:
[1] = Stability of the enamide in HDAC buffer at pH 2-12 (HPLC/LCMS); format: physicochemical; details: HDAC assay buffer, room temperature, 20 μM
Protocol: HDAC buffer was adjusted to pH 2, 4, 6, 7, 8, 10 or 12 with […]. Compound 9 was dissolved in HDAC buffer at each pH to obtain 200 μL of a 20 μM solution. The solutions were kept at room temperature and 10 μL aliquots were analyzed at selected time points (t=0, 5, 10, 15, 30 and 60 minutes). Experiments were carried out in duplicate and the hydrolysis was monitored by HPLC and LCMS. HPLC measurements were made using a gradient elution system composed of water and acetonitrile with 0.01% ammonium formate at a flow rate of 1 mL/min on an Agilent Eclipse XDB-C18 chromatographic column (4.6 mm×150 mm). LCMS was performed with a gradient elution system composed of water and acetonitrile with 0.1% ammonium formate at a flow rate of 0.1 mL/min using an Agilent Eclipse XDB-C8 chromatographic column (5 μm particle size, 2.1 mm×150 mm).

Bovine serum albumin = Bovine serum albumin (Bos taurus, UniProt P02769); experiment: HP-1 deacetylation and protein binding assay (gel filtration, fluorescence)
Sequence of Bovine serum albumin (P02769 25-607): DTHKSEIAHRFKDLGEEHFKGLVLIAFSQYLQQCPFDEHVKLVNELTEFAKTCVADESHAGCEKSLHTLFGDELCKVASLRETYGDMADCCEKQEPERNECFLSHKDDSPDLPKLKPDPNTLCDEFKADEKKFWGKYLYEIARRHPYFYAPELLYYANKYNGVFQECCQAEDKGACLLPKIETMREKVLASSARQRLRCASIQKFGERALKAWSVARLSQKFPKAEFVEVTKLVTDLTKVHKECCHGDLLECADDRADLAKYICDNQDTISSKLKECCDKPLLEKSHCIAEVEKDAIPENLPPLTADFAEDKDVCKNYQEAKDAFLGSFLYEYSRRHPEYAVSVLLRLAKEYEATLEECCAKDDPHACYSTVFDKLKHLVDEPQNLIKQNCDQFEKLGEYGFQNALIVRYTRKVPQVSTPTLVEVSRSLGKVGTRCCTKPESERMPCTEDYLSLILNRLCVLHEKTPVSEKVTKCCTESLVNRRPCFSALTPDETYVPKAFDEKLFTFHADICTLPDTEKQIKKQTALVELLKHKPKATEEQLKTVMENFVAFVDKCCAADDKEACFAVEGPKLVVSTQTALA
Protocol: Solutions containing HP-1 (20 μM) in 30 μL HDAC buffer with 5% DMSO were incubated at 37° C. for four hours in the presence or absence of HDAC3 (3.6 μM). After incubation with HDAC3, NaCNBH3 (1.4 mM) or vehicle (H2O) and BSA (6 mg/mL) or vehicle (HDAC buffer), were added to the solutions prior to an additional incubation at 37° C. for two hours (all reactions were run in triplicate). Following the second incubation, the final solutions (50 μL) were added to G-25 columns (GE Healthcare, Buckinghamshire, UK) pre-equilibrated with milliQ water. The columns were then centrifuged at 700×g for 60 seconds before addition of milliQ water (50 μL). […] 75 μL of each fraction was transferred to a well in a 96-well, black, clear-bottom plate (Corning Incorporated, Corning, N.Y.) and the fluorescence was detected using an IVIS Spectrum (Caliper, Hopkinton, Mass.). To obtain the fluorescence signals, the 465 nm excitation filter, 530 nm emission filter, and a 5 second exposure were used. For analysis, the total photon flux over the area of each well was determined.
HP-1 deacetylation and protein binding assay. […] The fractions were transferred to a well in a 96-well, black, clear-bottom plate (Corning Incorporated, Corning, N.Y.) and the fluorescence was detected using an IVIS Spectrum (Caliper, Hopkinton, Mass.). […]

| conversion of the enamide to the aldehyde ([1]; pH 2, 60 min) | conversion of the enamide to the aldehyde ([1]; pH 4-12, 60 min) | SMILES | increase in protein-DHP-1 binding compared to controls (Bovine serum albumin; HP-1 (20 μM) incubated with HDAC3, then BSA with NaCNBH3 (Lanes F and H)) [fold] | increase in detected protein-DHP-1 binding relative to controls (Bovine serum albumin; HP-1 (20 μM) incubated with HDAC3, then BSA, no NaCNBH3 (lanes E and G)) [fold] |
| --- | --- | --- | --- | --- |
| full conversion | no detectable conversion | CC(=O)NC=CCCCCNC(=O)c1ccccc1 [Compound 9] |  |  |
|  |  | O=CCCCCCNC(=O)CCCCCNc1ccc([N+](=O)[O-])c2nonc12 [DHP-1] | 5 | 2 |
